Experimental data reported in patent publication US20070081967A1, “Revitalizing hair follicles with total parenteral nutrition or hyperalimentation for maximum hair growth” (priority 2005, published 2007).
“Also recorded” adds a separate entry of the source.

Assays:
[1] = Solubility of ingredients in solvents during preparation; settings: qualitative
Protocol: 3 grams of azelaic acid was ground up into a powder from “hairs” of this dicarboxylic acid. […] Next, 50 mg of vinpocetine is added to the mortar and also ground to a powder. The use of 10 mg tablets of vinpocetine can be used if the raw material in not available. […] At this point 26 cc (or ml) of isopropyl alcohol is added to the mortar and mixed to form the first suspension. […] These two powders are soluble in water which 5 ml of sterile water is added and stirred. At the point the two products can be combines with the final addition of 12 ml of propylene glycol. […] The final volume of 60 ml can be achieved by the “qs” or “adding up to” the 60 ml mark with sterile water.

alopecia = settings: cited from earlier work

solubility in isopropyl alcohol [1] | SMILES | solubility in organic solvents ([1]; solvents named in value) | time to loss of new hair after treatment is stopped (alopecia; after finasteride treatment is stopped) [year] | time to occurrence of hair growth (alopecia; balding men, after start of use) | success rate for treating alopecia (alopecia; reported success rate) [%]
slightly soluable | CCOC(=O)C1=C[C@]2(CC)CCCN3CCc4c(n1c1ccccc41)[C@@H]32 [Vinpocetine, 14-ethoxycarbonyl-3 alpha, 16 alpha-ethyl-14, 15-ebumamine] | only soluable in DMSO, 100% ethanol or acetone; also recorded: only soluble in DMSO, 100% ethanol or acetone |  |  | 
 | CC(C)(C)NC(=O)[C@H]1CC[C@H]2[C@@H]3CC[C@H]4NC(=O)C=C[C@]4(C)[C@H]3CC[C@]12C [Finasteride] |  | ≤ 1 | about 3 months | 40
